# Test results published in patent US20200253877A1, “GEMCABENE, PHARMACEUTICALLY ACCEPTABLE SALTS THEREOF, COMPOSITIONS THEREOF AND METHODS OF USE THEREFOR” (NEUROBO PHARMACEUTICALS, INC., priority 2018, published 2020).
# Key:
# [1] = Tablet dissolution in pH 5.0 potassium acetate, USP apparatus 2, UV/Vis fiber optic quantitation (216 nm to 230 nm); type: physicochemical; settings: film-coated Tablets D, F2, C3, ES (average n=6)
# Description: Tablet's gemcabene dissolution profiles were evaluated using an ultra-violet/visible (uv/vis) light absorption methodology in which dissolved gemcabene in the dissolution media was directly measured inside the dissolution vessel. This method of analysis allowed for real-time measurement of gemcabene dissolution at multiple, closely spaced sampling intervals. This method provides a higher resolution dissolution profile than could be obtained with the HPLC analysis methodology used in Example 13 and allowed for detection of differences in dissolution characteristics between the various gemcabene calcium polymorphs. […] FIG. 56 compares the gemcabene dissolution profiles generated using these two methodologies and Table 28 reports the gemcabene dissolution profiles and % RSD for n=6 dissolution testing conducted with both methods of analysis.
# [2] = system: patients with familial hypercholesterolemia (FH); assay: Open-label escalating-dose study (300, 600, 900 mg) in familial hypercholesterolemia patients on stable lipid-lowering therapy: LDL-C; type: in vivo, human; settings: Patient 1
# Description: A study was performed to evaluate the efficacy of film-coated Tablet D in treating patients with familial hypercholesterolemia (FH) and who are on stable, lipid-lowering therapy. Male and female patients ≥17 years of age who had been diagnosed with FH by genetic confirmation or a clinical diagnosis based on either (1) a history of an untreated LDL-C concentration ≥500 mg/dl (12.92 mmol/L) together with either appearance of xanthoma before 10 years of age, or evidence of familial hypercholesterolemia in both parents or (2) LDL-C >300 mg/dl (7.76 mmol/L) on maximally tolerated lipid-lowering drug therapy were enrolled in the study.
# The study was a 3-period, 3-treatment study using successively escalating doses of 300 mg, 600 mg, and 900 mg gemcabene calcium salt hydrate Crystal Form 1 (PSD90=52 μm). All patients were on each of the successive doses for 4 weeks at a time. Patients remained on their stable, lipid-lowering therapy throughout the study.
# Each patient received one 300 mg gemcabene calcium salt hydrate Crystal Form 1 tablet (film-coated Tablet D) orally QD (alternatively written as q.d.; meaning “once a day”) for 4 weeks. The same patients then received 600 mg gemcabene calcium salt hydrate Crystal Form 1 orally QD for 4 weeks. The 600 mg dose consisted of two 300-mg tablets (film-coated Tablet D×2). […]
# LDL-C values were measured after the patient had been administered film-coated Tablet D for 2 weeks for each dosing level and on the last day of each dose. For each escalated dose, percent change from baseline in LDL-C was calculated using the baseline LDL-C value and the final LDL-C value measured for each dose. […]
# This was an open-label, dose-finding, 3-period, 3-treatment study using successively escalating doses of 300 mg, 600 mg, and 900 mg gemcabene calcium salt hydrate Crystal Form 1 having PSD90 of 52 μm in patients clinically diagnosed with familial hypercholesterolemia (FH). […] Plasma from these samples were analyzed for gemcabene concentrations and the data used for PK analysis. […]
# [3] = Effect of steady-state gemcabene 600 mg on single-dose pharmacokinetics of ON 1/35 (ethinyl estradiol/norethindrone) in healthy female subjects; type: in vivo, human; settings: 600 mg daily at steady state; single dose ON 1/35
# Description: An open-label, two-sequence, cross-over study to assess the steady-state effects of gemcabene calcium on the single-dose pharmacokinetics (PK) of oral contraceptive tablets in healthy female subjects was conducted with 300 mg tablets containing gemcabene calcium salt hydrate Crystal Form 1 having PSD90 of 52 μm (film-coated Tablet F).
# The population for this study was generally healthy, adult female subjects of childbearing potential (≥18 to ≤35 years of age). This population supports the overall objective of the study to evaluate the effect of 600 mg of gemcabene calcium salt hydrate Crystal Form 1 having PSD90 of 52 μm at steady-state on the PK of a single dose of ON 1/35 (Ortho Novum 1/35; combined ethinyl estradiol/norethindrone oral contraceptive). The primary objective of this study was to assess the effect of daily 600 mg of gemcabene calcium salt hydrate Crystal Form 1 having PSD90 of 52 μm at steady-state on the pharmacokinetics (PK) of ON 1/35. The secondary objectives of this study were to assess the safety and tolerability of daily gemcabene 600 mg in combination with a single-dose ON 1/35 and to assess the steady-state PK of 600 mg of gemcabene calcium salt hydrate Crystal Form 1 having PSD90 of 52 μm (film-coated Tablet F×2). […]
smiles,measurement,setting,value
"CC(C)(CCCCOCCCCC(C)(C)C(=O)O)C(=O)O.[Ca] [6-(5-Carboxy-5-methyl-hexyloxy)-2,2-dimethylhexanoic acid calcium]","gemcabene dissolution rate of film-coated tablets, compared among polymorphs",[1],intermediate profile
same,LDL-C reduction compared to baseline,"[2]; 300 mg oral QD, 4 weeks",55.2%
same,LDL-C reduction compared to baseline,"[2]; 600 mg oral QD, 8 weeks",49.8%
same,LDL-C reduction compared to baseline,"[2]; 900 mg oral QD, 12 weeks",54.5%
same,drug-drug interaction with ethinyl estradiol and norethindrone,[3],mild drug-drug interaction
